pIC50: −log10 of the molar value. Where a name gives a salt, the structure may show the parent alone. Read-outs that look alike come from different tables or passages of the source.
Key:
[1] = molecular target: T1, β2 -adrenergic receptors (Rattus norvegicus, UniProt P10608); assay: Affinity for β2 adrenergic receptors (3H dihydroalprenolol displacement, rat cerebellum); assay type: binding; conditions: relative to propranolol, 37° C., pH 7.7
T1 construct: cerebellums of male rats weighing an average of 150 g; from tissue; host or cells: cerebellum of male rats (membranes)
T1 sequence (P10608 whole entry): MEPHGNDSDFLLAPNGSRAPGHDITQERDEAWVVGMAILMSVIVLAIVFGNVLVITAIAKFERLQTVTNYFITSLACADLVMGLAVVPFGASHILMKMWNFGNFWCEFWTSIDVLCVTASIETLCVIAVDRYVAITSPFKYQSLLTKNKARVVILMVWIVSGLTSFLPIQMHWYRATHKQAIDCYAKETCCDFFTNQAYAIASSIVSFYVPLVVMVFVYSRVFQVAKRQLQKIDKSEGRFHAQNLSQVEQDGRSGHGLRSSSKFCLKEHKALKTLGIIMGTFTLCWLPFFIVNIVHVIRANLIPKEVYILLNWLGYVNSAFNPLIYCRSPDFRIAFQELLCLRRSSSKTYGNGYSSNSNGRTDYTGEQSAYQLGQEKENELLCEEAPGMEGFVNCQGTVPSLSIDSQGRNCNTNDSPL
Protocol: The technique was inspired by that of Mohler et al [Science, Vol. 198 (1977), p. 849-851] and the cerebellums of male rats weighing an average of 150 g were homogenized in 90 ml of 0.32M sucrose. After centrifugation of the homogenized mixture at 1000 g for 20 minutes at 0° C., the surnageant was centrifuged at 30,000 g for 15 minutes at 0° to 4° C. The culot was suspended in 120 ml of buffer Tris HCl (50 mM-pH of 7.7) and the suspension was centrifuged at 30,000 g for 15 minutes at 0° to 4° C. The resulting culot was suspended in 480 ml of buffer Krebs Tris HCl with a pH of 7.7 and 2 ml of the suspension was incubated at 37° C. for 10 minutes in the presence of 3H dihydroalprenolol at a concentration of 10^-9 M alone and with increasing concentrations of the test compound or with 10^-5 M of non-radioactive propranolol to determine the non-specific fixation.
The incubated suspensions were filtered through Whatman FG/C filter and the filters were rinsed 3 times with 5 ml of buffer Krebs Tris HCl with a pH of 7.7 at 0° C. The radioactivity of the filters was measured by liquid scintillation and the affinity of the test compounds for β2 -adrenergic receptors relative to propranolol as a standard was determined similar as to Test D. The results are reported in Table VII.

[2] = system: α1 adrenergic receptors; assay: Affinity for α1 adrenergic receptors (3H prazosine displacement, rat brain); assay type: binding; conditions: relative to phentolamine (ARL=100×(CB/CX)), 25° C., pH 7.7
Protocol: After centrifugation at 30,000 g for 15 minutes at 0° to 4° C., the culot was suspended in 240 ml of buffer Tris HCl 50 mM (pH-7.7) and the suspension was centrifuged at 30,000 g for 20 minutes at 0° to 4° C. The new culot was suspended in 480 ml of buffer Krebs Tris HCl (pH of 7.7-50 mM) and 2 ml of the suspension in the presence of 3H prazosine at a concentration of […] alone and with increasing concentrations of the test compound or with non-radioactive phentolamine at a concentration of 10^-5 M to determine the non-specific fixation was incubated at 25° C. for 30 minutes.
The incubated suspensions were filtered through Whatman FG/C and the filtered were washed with 3 times with 5 ml of buffer Krebs Tris HCl-pH of 7.7 at 0° to 4° C. The radioactivity of the filters was measured by liquid scintillation and the affinity of the test compound for α1 adrenergic receptors was compared relative to phentolamine as the reference compound by the formula
CD=concentration of phentolamine inhibiting by 50% the specific fixation of 3H prazosine.
CX=concentration of test product inhibiting by 50% the specific fixation of 3H prazosine.

[3] = system: mice; assay: Acute toxicity (DL0, oral); assay type: in vivo, mouse; set-up: unit not given here
[4] = molecular target: T2, β1 adrenergic receptors (Rattus norvegicus, UniProt P18090); assay: Affinity for β1 adrenergic receptors (3H dihydroalprenolol displacement, rat brain cortex); assay type: binding; conditions: relative to propranolol, 37° C., pH 7.7
T2 construct: 10 cortexes removed from the brains of male rats weighing an average of 150 g; from tissue; host or cells: cerebral cortex of male rats (membranes)
T2 sequence (P18090 whole entry): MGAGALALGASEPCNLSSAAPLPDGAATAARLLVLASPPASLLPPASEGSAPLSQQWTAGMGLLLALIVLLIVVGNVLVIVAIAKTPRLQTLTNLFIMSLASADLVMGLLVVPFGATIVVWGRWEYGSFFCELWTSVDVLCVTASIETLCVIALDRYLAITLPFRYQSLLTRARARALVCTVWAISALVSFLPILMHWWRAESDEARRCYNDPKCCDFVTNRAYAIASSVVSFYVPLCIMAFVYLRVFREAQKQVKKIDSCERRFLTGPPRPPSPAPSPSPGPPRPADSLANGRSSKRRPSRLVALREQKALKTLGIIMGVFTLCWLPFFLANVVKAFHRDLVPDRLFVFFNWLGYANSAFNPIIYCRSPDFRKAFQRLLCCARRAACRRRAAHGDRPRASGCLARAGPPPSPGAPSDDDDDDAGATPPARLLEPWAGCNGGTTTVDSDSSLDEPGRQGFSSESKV
Protocol: The test was inspired by that of Mohler et al [Science, Vol. 198 (1977), p. 849-851] and 10 cortexes removed from the brains of male rats weighing an average of 150 g were homogenized in 90 ml of 0.32M of sucrose. After centrifuging the homogenized mixture at 1000 g for 20 minutes at 0° C., the surnageant was centrifuged at 30,000 g for 15 minutes at 0° to 4° C. The culot was suspended in 120 ml of buffer Tris HCl 50 mM with a pH of 7.7 and was centrifuged at 30,000 g for 15 minutes at 0° to 4° C. The resulting culot was suspended in 480 ml of buffer Krebs Tris HCl (50 mM-pH of 7.7) and 2 ml of the suspension in the presence of 3H dihydroalprenolol at a concentration of 10^-9 M alone and with increasing concentrations of the test compound or with non-radioactive propranolol at a concentration of 10^-5 M to determine the non-specific fixation was incubated at 37° C. for 10 minutes.
The incubated suspensions were filtered through Whatman GF/C and the filters were washed 3 times with 5 ml of buffer Krebs Tris HCl (pH-7.7) at 0° C. The radioactivity of the filters was measured by liquid scintillation and the affinity of the test compounds for β1 -adrenergic receptors was compared using propranolol as a standard as in Test D. The results are reported in Table VI.

[5] = system: carotidien arterial pressure in rats; assay: Hypotensive activity (carotidien arterial pressure in anesthesized rats); assay type: in vivo, rat (Wistar); conditions: rat, intravenous
Protocol: The hypotensive activity was studied on male rats of the Wistar strain weighing about 300 g and anesthesized with 50 mg/kg of nembutal intraveinously. The test products were administered intraveinously by the jugular vein and the carotidien arterial pressure was measured before and after administration of the test compounds. The variations expressed in percentage of arterial pressure after administration with respect to the initial pressure is reported in Table IV.

[6] = system: cardiac rhythm troubles in guinea pigs; assay: Antiarythmic action (K-strophanthine and adrenaline induced cardiac rhythm troubles); assay type: in vivo, guinea pig; conditions: Cavia porcellus, 1 h, oral 10 mg/kg, one hour before K-strophanthine and adrenaline perfusion, read-out: Percentage of protection (lengthening of the time of appearance of cardiac rhythm troubles as compared to controls)
Protocol: Male guinea pigs weighing between 450 and 500 g were tracheotomized while anesthesized by intraperitoneal administration of […] of urethane and were subjected to artifical respiration of 40 to 50 breaths of 5 ml per minute. Needles were subcutaneously implanted to register an electrocardiogram of the guinea pigs for the signal of D II derivation. The test products were orally administered and one hour later, the jugular vein of the guinea pigs were perfused with 0.5 ml per minute of a solution of 150 γ/ml of K-strophanthine and 0.5 ml per minute of a solution of 5 γ/ml of adrenaline and the number of times of the appearance of cardiac rhythm troubles was noted. The results are expressed in percentage of protection with an oral dose of 10 mg/kg of test product that is to say the percentage of lengthening of the time of appearance of cardiac rhythm troubles as compared to the controls.

[7] = system: Rat arteries (arterial contractions, entry of calcium ions into the cells of smooth muscles); assay: In vitro anticalcic activity (inhibition of potassium-depolarized, calcium-induced contractions of isolated rat arteries); assay type: cell-based; conditions: dose inhibiting by 50% the contractions caused by potassium ions (100 mM), 37° C., read-out: CI50 (the source's name)
Protocol: Rat arteries decoupled in a spiral were attached to a tension collector and were maintained in tanks containing 2.5 ml of Krebs-sodium bicarbonate buffer (NaCl: 120.8 mM, KCl: 5.9 mM, MgCl2 : 1.2 mM, NaH2 PO4 : 1.2 mM, NaHCO3 : 15.5 mM, glucose: 12.6 mM), at 37° C. covered with a 95%-5% oxygen-carbon dioxide mixture. The preparations were depolarized with a buffered solution containing 100 mM of potassium ions (NaCl: 26.7 mM, KCl: 100 mM, MgCl2 : 1.2 mM, NaH2 PO4 : 1.2 mM, NaHCO3 : 15.5 mM, glucose 12.6 mM).
A volume of 25 μl of calcium chloride was added to the mixture in a manner to obtain a range of increasing concentrations of calcium ions from 0.1 to 3.0 mM and the contractions of the artery were measured to obtain a control. The operation with range of calcium ions was repeated every 15 minutes and the preparation was washed 4 times after each range. When a stable response was obtained, the operation with the range of calcium ions was effected in the presence of varying concentrations of test compounds until a stable response was obtained.
The arterial contractions depend on the entry of calcium ions into the cells of smooth muscles and are provoked by depolarization of smooth muscles by potassium ions and by action of noradrenaline freed by presynapthic level. By recommencing the operation with denerved arteries by the action of 6-hydroxy-dopamine, the specific action due to noradrenaline is suppressed.

[8] = 1 min, 1 minute, read-out: % Variation of arterial pressure after administration, 1 minute
[9] = 5 min, 5 minutes, read-out: % Variation of arterial pressure after administration, 5 minutes
[10] = 10 min, 10 minutes, read-out: % Variation of arterial pressure after administration, 10 minutes
[11] = 0.5 h, 30 minutes, read-out: % Variation of arterial pressure after administration, 30 minutes

SMILES | ARL in % (relative affinity for β2 adrenergic receptors) [1] | % Arl (relative affinity for α1 adrenergic receptors) [2] | DL0 (maximum dose which did not cause any deaths after 8 days) [3] | ARL in % (relative affinity for β1 adrenergic receptors) [4] | change in vivo at 1 mg/kg [5, 8] | change in vivo at 1 mg/kg [5, 9] | change in vivo at 1 mg/kg [5, 10] | change in vivo at 1 mg/kg [5, 11] | change in vivo at 10 mg/kg [6] | pIC50 [7]
CC(=O)c1ccccc1OCC(O)CN1CCC(c2c[nH]c3ccccc23)CC1 (stereo not drawn) [Example 17, 4-(1H--indol-3-yl)-α-[2-(acetyl-phenoxymethyl]-piperidine-1-ethanol hydrochloride] | 3.3% | 159% | > 100 | 1.2% | -17% | -5% | -18% | -6% | 142% | 5.22
C=CCc1ccccc1OCC(O)CN1CCC(c2c[nH]c3ccccc23)CC1 (stereo not drawn) [Example 7, 4-(1H--indol-3-yl)-α-[2-prop-2-enyl)-phenoxymethyl]-piperidine-1-ethanol hydrochloride] | 10% | 100% | > 200 | 3.7% | – | – | – | – | 50% | 6.49
COC(=O)c1ccccc1OCC(O)CN1CCC(c2c[nH]c3ccccc23)CC1 (stereo not drawn) [Example 6, 4-(1H--indol-3-yl)-α-[2-methoxycarbonyl-phenoxymethyl]-piperidine-1-ethanol hydrochloride] | 3.5% | 253% | 80 | 1.3% | -21% | -13% | -13% | 0% | 37% | 5.52
C#CCc1ccccc1OCC(O)CN1CCC(c2c[nH]c3ccccc23)CC1 (stereo not drawn) [Example 16, 4-(1H--indol-3-yl)-α-[2-(prop-2-ynyl)-phenoxymethyl]-piperidine-1-ethanol hydrochloride] | 11% | 321% | > 100 | 5.8% | – | – | – | – | 71% | 5.80
OC(COc1ccccc1C1CCCCC1)CN1CCC(c2c[nH]c3ccccc23)CC1 (stereo not drawn) [Example 15, 4-(1H--indol-3-yl)-α-[2-cyclohexyl-phenoxymethyl]-piperidine-1-ethanol hydrochloride] | 5.4% | – | > 100 | – | – | – | – | – | – | 5.30
C=CCOc1ccccc1OCC(O)CN1CCC(c2c[nH]c3ccccc23)CC1 (stereo not drawn) [Example 1, 4-(1H-indol-3-yl)-α-[{2-(prop-2-enyloxy)-phenoxy}-methyl]-piperidine-1-ethanol hydrochloride] | 10.5% | 247% | 100 | 7.3% | – | – | – | – | 63% | 5.40
N#Cc1ccccc1OCC(O)CN1CCC(c2c[nH]c3ccccc23)CC1 (stereo not drawn) [Example 4, 4-(1H--indol-3-yl)-α-[2-cyanophenoxymethyl]-piperidine-1-ethanol hydrochloride] | 1.1% | 145% | > 100 | 13.3% | -24% | -21% | -22% | -26% | 148% | 5.46

Reference: patent publication US4530932A, “4-(1H-indol-3-yl)-α-methyl-piperidine-1-ethanol derivatives” (Roussel Uclaf, priority 1982, dated 1985)
